Experimental data published in patent US20090227578A1, “Azabenzimidazole Derivatives, Their Manufacture and Use as Anti-Cancer Agents” (priority 2005, published 2009).

Legend:
[1] = target: T1, Lck (p56lck, active, Upstate) (Homo sapiens, UniProt P06239); assay: SRC-Inhibitor-Assay, time-resolved fluorescence kinase assay (Lck); type: biochemical; conditions: ATP 5 μM; peptide 10 μM; enzyme pre-incubated 15 min at 15° C. with inhibitor
T1 construct: purchased UBI, Upstate Biotech, Inc
Description: The activity of the compounds according to this invention as protein kinase inhibitors, in particular for the src-family tyrosine kinases, was shown by using the following assay.
(§1) SRC-Inhibitor-Assay Parameters:
Eu-labelled phosphotyrosine antibody:—for Lck Cisbio Mab PT66-K, • for Src EG&G Wallac PT66 Eu-W1024 (all commercially available).
(§2) Peptides: Ro: NH2-A-E-E-E-I—Y-G-E-F-E-A-K—K—K—K—CONH2, and
(§3) • Ja133-Ro: Ja133-G-Aminocaprylic acid-A-E-E-E-I—Y-G-E-F-E-A-K—K—K—K—CONH2, wherein Ja133 is LightCycler-Red 640-N-hydroxy succinimide ester; • whereby both peptides were synthesized by an optimized solid phase peptide synthesis protocol (Merrifield, Fed. Proc. Fed. Amer. Soc. Exp. Biol. 21 (1962) 412) on a Zinsser SMP350 peptide synthesizer. Shortly, the peptide was assembled on 160 mg (22.8 μmol scale) of a Rink-Linker modified polystyrene solid phase by repeatedly conjugating an twenty fold excess of amino acids each protected by temporary piperidine labile Fmoc- and permanent acid labile tert-Bu-, BOC- and O-tert-Bu-groups depending on the side chain function. The substrate sequence […] was N-terminal additionally mounted with the spacer amino acids Aminocaprylic acid and Glycin. After cleavage of the N-terminal temporary protecting group the still attached and protected peptide was labeled with a 1.5 fold amount of LightCycler-Red 640-N-hydroxy succinimide ester (purchased from Roche Diagnostics GmbH) and triethylamine. After 3 hrs. the resin was washed with Dimethylformamide and Isopropanol until the eluates of the blue resin got colourless. […] The substrate was finally isolated by a preparative reverse phase HPLC purification. The purification yielded 12.2 mg RP-HPLC single peak pure blue material (lyophilisate). The identity was proven by MALDI mass spectroscopy [2720.0]. • Enzymes: Upstate Lck (p56^lck, active), Upstate Src (p60^c-src, partially purified) were purchased from UBI, Upstate Biotech, Inc. Time-resolved Fluorescence Assay: Reader: Perkin Elmer, Wallac Viktor 1420-040 multilabel counter; Liquid handling system: Beckman Coulter, Biomek 2000.
(§4) ATP, Tween 20, 4-(2-hydroxyethyl)-1-piperazineethanesulfonic acid (HEPES) were purchased from Roche Molecular Biochemicals, MgCl2 and MnCl2 were purchased from Merck Eurolab, Tris(2-carboxyethyl)phosphine hydrochloride (TCEP) was purchased from Pierce, 384 Well low volume fluorescence plates was purchased from Falcon.
(§5) At first the enzyme is pre-incubated for 15 min. at 15° C. in aqueous solution with corresponding amounts of inhibitors according to this invention. Then the phosphorylation reaction is started by adding a reaction mixture, containing ATP, Peptide and PT66, and subsequent shaking. The proceeding of this reaction is immediately monitored using time resolved fluorescence spectroscopy in a suitable well plate reader.
(§6) The IC50-values can be obtained from the reaction rates by using a non-linear curve fit (XLfit software (ID Business Solution Ltd., Guilford, Surrey, UK))

[2] = target: T2, Src (p60c-src, partially purified, Upstate) (Homo sapiens, UniProt P12931); assay: SRC-Inhibitor-Assay, time-resolved fluorescence kinase assay (Src); type: biochemical; conditions: ATP 5 μM; peptide 10 μM; enzyme pre-incubated 15 min at 15° C. with inhibitor
T2 construct: purchased UBI, Upstate Biotech, Inc
T2 sequence (P12931 whole entry): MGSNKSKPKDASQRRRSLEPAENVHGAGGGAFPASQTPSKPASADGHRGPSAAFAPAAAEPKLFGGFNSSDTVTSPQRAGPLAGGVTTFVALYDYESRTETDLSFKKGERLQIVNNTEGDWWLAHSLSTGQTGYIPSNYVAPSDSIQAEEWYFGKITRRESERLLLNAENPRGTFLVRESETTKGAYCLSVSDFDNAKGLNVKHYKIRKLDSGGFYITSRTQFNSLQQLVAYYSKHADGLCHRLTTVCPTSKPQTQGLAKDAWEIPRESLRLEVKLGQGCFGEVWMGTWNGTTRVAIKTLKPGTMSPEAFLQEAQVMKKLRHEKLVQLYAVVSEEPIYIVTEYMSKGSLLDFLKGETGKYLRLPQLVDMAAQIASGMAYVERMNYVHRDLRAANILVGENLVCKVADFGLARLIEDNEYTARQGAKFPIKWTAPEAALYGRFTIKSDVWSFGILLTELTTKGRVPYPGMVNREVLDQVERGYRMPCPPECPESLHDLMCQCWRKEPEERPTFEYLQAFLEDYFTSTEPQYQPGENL
Protocol: as §1, §2
as §3, with “purification.” for “purification. The purification yielded 12.2 mg RP-HPLC single peak pure blue material (lyophilisate). The identity was proven by MALDI mass spectroscopy [2720.0]. • Enzymes: Upstate Lck (p56^lck, active), Upstate Src (p60^c-src, partially purified) were purchased from UBI, Upstate Biotech, Inc. Time-resolved Fluorescence Assay: Reader: Perkin Elmer, Wallac Viktor 1420-040 multilabel counter; Liquid handling system: Beckman Coulter, Biomek 2000.”
as §4, §5, §6

T1 sequence (P06239 whole entry): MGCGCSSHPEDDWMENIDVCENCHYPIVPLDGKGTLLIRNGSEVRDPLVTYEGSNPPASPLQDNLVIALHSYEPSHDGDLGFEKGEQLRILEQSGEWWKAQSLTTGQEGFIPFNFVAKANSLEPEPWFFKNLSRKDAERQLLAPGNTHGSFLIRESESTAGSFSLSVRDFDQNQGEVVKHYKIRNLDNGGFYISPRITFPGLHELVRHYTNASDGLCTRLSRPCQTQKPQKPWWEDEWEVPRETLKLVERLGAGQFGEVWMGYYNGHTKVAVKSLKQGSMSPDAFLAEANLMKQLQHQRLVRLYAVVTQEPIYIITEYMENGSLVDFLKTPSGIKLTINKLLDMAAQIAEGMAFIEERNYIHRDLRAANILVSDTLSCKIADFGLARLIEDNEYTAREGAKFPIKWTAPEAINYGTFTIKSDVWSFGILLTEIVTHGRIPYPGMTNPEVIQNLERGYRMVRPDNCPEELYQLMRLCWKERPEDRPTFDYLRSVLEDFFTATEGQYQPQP

Cc1ccc(NC(=O)/C=C/c2cccnc2)cc1C(=O)Nc1cnc2[nH]c(-c3ccccc3)nc2c1 [Example 1-2, 2-Methyl-N-(2-phenyl-3H-imidazo[4,5-b]pyridin-6-yl)-5-((E)-3-pyridin-3-yl-acryloylamino)-benzamide]
IC50 [1]: 10 to 100 nM
IC50 [2]: 10 to 100 nM

O=C(Nc1ccc(Cl)c(C(=O)Nc2cnc3[nH]c(-c4ccccc4)nc3c2)c1)c1cccc(-c2ccccc2)c1 [Example 2-4, Biphenyl-3-carboxylic acid[4-chloro-3-(2-phenyl-3H-imidazo[4,5-b]pyridin-6-ylcarbamoyl)-phenyl]-amide]
IC50 [1]: 200 nM
IC50 [2]: 64 nM

Cc1ccc(NC(=O)/C=C/c2ccncc2)cc1C(=O)Nc1cnc2[nH]c(-c3ccccc3)nc2c1 [Example 1-1, 2-Methyl-N-(2-phenyl-3H-imidazo[4,5-b]pyridin-6-yl)-5-((E)-3-pyridin-4-yl-acryloylamino)-benzamide]
IC50 [1]: 10 to 100 nM
IC50 [2]: 100 to 1000 nM

Cc1ccc(NC(=O)c2cccc(-c3ccccc3)c2)cc1C(=O)Nc1cnc2[nH]c(-c3ccccc3)nc2c1 [Example 1-6, Biphenyl-3-carboxylic acid[4-methyl-3-(2-phenyl-3H-imidazo[4,5-b]pyridin-6-ylcarbamoyl)-phenyl]-amide]
IC50 [1]: 100 to 1000 nM
IC50 [2]: 10 to 100 nM

Cc1ccc(NC(=O)/C=C/c2ccccc2)cc1C(=O)Nc1cnc2[nH]c(-c3ccccc3)nc2c1 [Example 1-4, 2-Methyl-5-[(E)-(3-phenyl-acryloyl)amino]-N-(2-phenyl-3H-imidazo[4,5-b]pyridin-6-yl)-benzamide]
IC50 [1]: 10 to 100 nM
IC50 [2]: 10 to 100 nM

O=C(Nc1ccc(Cl)c(C(=O)Nc2cnc3[nH]c(-c4ccccc4)nc3c2)c1)c1ccccc1 [Example 2-5, 5-Benzoylamino-2-chloro-N-(2-phenyl-3H-imidazo[4,5-b]pyridin-6-yl)-benzamide]
IC50 [1]: 10 to 100 nM

O=C(Nc1ccc(Cl)c(C(=O)Nc2cnc3[nH]c(-c4ccccc4)nc3c2)c1)c1ccc(N2CCOCC2)cc1 [Example 2-1, 2-Chloro-5-(4-morpholin-4-yl-benzoylamino)-N-(2-phenyl-3H-imidazo[4,5-b]pyridin-6-yl)-benzamide]
IC50 [1]: 10 to 100 nM
IC50 [2]: 10 to 100 nM

Cc1ccc(NC(=O)c2ccccc2)cc1C(=O)Nc1cnc2[nH]c(-c3ccccc3)nc2c1 [Example 1-5, 5-Benzoylamino-2-methyl-N-(2-phenyl-3H-imidazo[4,5-b]pyridin-6-yl)-benzamide]
IC50 [1]: 10 to 100 nM
IC50 [2]: 10 to 100 nM

O=C(/C=C/c1ccccc1)Nc1ccc(Cl)c(C(=O)Nc2cnc3[nH]c(-c4ccccc4)nc3c2)c1 [Example 2-2, 2-Chloro-5-[(E)-(3-phenyl-acryloyl)amino]-N-(2-phenyl-3H-imidazo[4,5-b]pyridin-6-yl)-benzamide]
IC50 [1]: 10 to 100 nM

Cc1ccc(NC(=O)c2ccc(N3CCOCC3)cc2)cc1C(=O)Nc1cnc2[nH]c(-c3ccccc3)nc2c1 [Example 1-3, 2-Methyl-5-(4-morpholin-4-yl-benzoylamino)-N-(2-phenyl-3H-imidazo[4,5-b]pyridin-6-yl)-benzamide]
IC50 [1]: 64 nM
IC50 [2]: 43 nM
